Source: patent US6552196B2, “Quinolone carboxylic acid derivatives” (Dong Wha Pharmaceutical Industrial Co., Ltd., priority 1997, dated 2003)
≈ marks a conversion by molar mass, not a printed value.

What was measured:
Experiment in all cases: In vitro antibacterial activity (MIC), agar dilution
Assay type in all cases: cell-based
[1] = tested on: Enterobacter clocae 1321E; conditions: 2-fold agar dilution, Muller-Hinton agar, 18 hours at 37° C., read-out: minimum inhibitory concentration (MIC)
Procedure: (§1) 10^7 cfu/ml of bacteria were inoculated and cultured for 18 hours at 37° C. and then the antibacterial activities were measured. For the methicillin resistant strains the activities were measured after 48 hours of cultivation at 30° C. Hoechst Standard strains were used for the testings.

Enterobacter clocae P99 = conditions: 2-fold agar dilution, Muller-Hinton agar, 18 hours at 37° C., read-out: minimum inhibitory concentration (MIC)
Procedure: as §1

Esherichia coli 078 = conditions: 2-fold agar dilution, Muller-Hinton agar, 18 hours at 37° C., read-out: minimum inhibitory concentration (MIC)
Procedure: as §1

Esherichia coli 1507E = conditions: 2-fold agar dilution, Muller-Hinton agar, 18 hours at 37° C., read-out: minimum inhibitory concentration (MIC)
Procedure: as §1

Esherichia coli DC0 = conditions: 2-fold agar dilution, Muller-Hinton agar, 18 hours at 37° C., read-out: minimum inhibitory concentration (MIC)
Procedure: as §1

Esherichia coli DC2 = conditions: 2-fold agar dilution, Muller-Hinton agar, 18 hours at 37° C., read-out: minimum inhibitory concentration (MIC)
Procedure: as §1

Esherichia coli TEM = conditions: 2-fold agar dilution, Muller-Hinton agar, 18 hours at 37° C., read-out: minimum inhibitory concentration (MIC)
Procedure: as §1

[2] = tested on: Klebsiella aerogenes 1522E; conditions: 2-fold agar dilution, Muller-Hinton agar, 18 hours at 37° C., read-out: minimum inhibitory concentration (MIC)
Procedure: as §1

Klebsiella oxytoca 1082E = conditions: 2-fold agar dilution, Muller-Hinton agar, 18 hours at 37° C., read-out: minimum inhibitory concentration (MIC)
Procedure: as §1

[3] = tested on: Pseudomonas aeruginosa 1592E; conditions: 2-fold agar dilution, Muller-Hinton agar, 18 hours at 37° C., read-out: minimum inhibitory concentration (MIC)
Procedure: as §1

[4] = tested on: Pseudomonas aeruginosa 1771M; conditions: Pseudomonas aeruginosa, 1771M, 18 h, read-out: minimum inhibitory concentration (MIC)
Procedure: as §1

[5] = tested on: Pseudomonas aeruginosa 1771; conditions: 2-fold agar dilution, Muller-Hinton agar, 18 hours at 37° C., read-out: minimum inhibitory concentration (MIC)
Procedure: as §1

[6] = tested on: Pseudomonas aeruginosa 9027; conditions: 2-fold agar dilution, Muller-Hinton agar, 18 hours at 37° C., read-out: minimum inhibitory concentration (MIC)
Procedure: as §1

Salmonella typhimurium = conditions: Salmonella enterica, 2-fold agar dilution, Muller-Hinton agar, 18 hours at 37° C., read-out: minimum inhibitory concentration (MIC)
Procedure: as §1

[7] = tested on: Staphylococcus aureus 285; conditions: 2-fold agar dilution, Muller-Hinton agar, 18 hours at 37° C., read-out: minimum inhibitory concentration (MIC)
Procedure: as §1

[8] = tested on: Staphylococcus aureus 503; conditions: 2-fold agar dilution, Muller-Hinton agar, 18 hours at 37° C., read-out: minimum inhibitory concentration (MIC)
Procedure: as §1

[9] = tested on: Staphylococcus aureus SG511; conditions: 2-fold agar dilution, Muller-Hinton agar, 18 hours at 37° C., read-out: minimum inhibitory concentration (MIC)
Procedure: as §1

[10] = tested on: Streptococcus faecium MD 8b; conditions: Enterococcus faecium, MD8B, 2-fold agar dilution, Muller-Hinton agar, 18 hours at 37° C., read-out: minimum inhibitory concentration (MIC)
Procedure: as §1

[11] = tested on: Streptococcus pyogens 308A; conditions: 2-fold agar dilution, Muller-Hinton agar, 18 hours at 37° C., read-out: minimum inhibitory concentration (MIC)
Procedure: as §1

[12] = tested on: Streptococcus pyogens 77A; conditions: 2-fold agar dilution, Muller-Hinton agar, 18 hours at 37° C., read-out: minimum inhibitory concentration (MIC)
Procedure: as §1

**Q.** What does the source list for `CON=C1CN(c2cc3c(cc2F)c(=O)c(C(=O)O)cn3C2CC2)CC12CNC2.CS(=O)(=O)O` [Example 2, 1-Cyclopropyl-6-fluoro-7-[8-(methoxyimino)-2,6-diazaspiro[3,4]oct-6-yl]-4-oxo-1,4-dihydro-3-quinolinecarboxylic acid methane sulfonate]?
**A.** MIC [1]: 0.025 µg/mL; MIC (Enterobacter clocae P99): 0.049 µg/mL; MIC (Esherichia coli 078): 0.025 µg/mL; MIC (Esherichia coli 1507E): 0.049 µg/mL; MIC (Esherichia coli DC0): 0.198 µg/mL; MIC (Esherichia coli DC2): 0.013 µg/mL; MIC (Esherichia coli TEM): 0.049 µg/mL; MIC [2]: 0.098 µg/mL; MIC (Klebsiella oxytoca 1082E): 0.007 µg/mL; MIC [3]: 0.391 µg/mL; MIC [4]: 0.391 µg/mL; MIC [5]: 0.391 µg/mL; MIC [6]: 0.781 µg/mL; MIC (Salmonella typhimurium): 0.025 µg/mL; MIC [7]: 0.049 µg/mL; MIC [8]: 0.049 µg/mL; MIC [9]: 0.013 µg/mL; MIC [10]: 0.098 µg/mL; MIC [11]: 0.195 µg/mL; MIC [12]: 0.007 µg/mL

**Q.** `CON=C1CN(c2c(F)cc3c(=O)c(C(=O)O)cn(C4CC4)c3c2F)CC12CNC2` [Example 3, 1-Cyclopropyl-6,8-difluoro-7-[8-(methoxyimino)-2,6-diazaspiro[3,4]oct-6-yl]-4-oxo-1,4-dihydro-3-quinolinecarboxylic acid] was tested. Which MIC [1] did it give?
**A.** 0.025 µg/mL (≈ 0.0598 µM)

**Q.** And the MIC (Enterobacter clocae P99)?
**A.** 0.049 µg/mL (≈ 0.117 µM)

**Q.** And the MIC (Esherichia coli 078)?
**A.** 0.098 µg/mL (≈ 0.234 µM)

**Q.** And the MIC (Esherichia coli 1507E)?
**A.** 0.049 µg/mL (≈ 0.117 µM)

**Q.** What about the MIC (Esherichia coli DC0) of the same compound?
**A.** 0.391 µg/mL (≈ 0.935 µM)

**Q.** What about the MIC (Esherichia coli DC2) of the same compound?
**A.** 0.025 µg/mL (≈ 0.0598 µM)

**Q.** What about the MIC (Esherichia coli TEM) of the same compound?
**A.** 0.049 µg/mL (≈ 0.117 µM)

**Q.** And the MIC [2]?
**A.** 0.098 µg/mL (≈ 0.234 µM)

**Q.** And the MIC (Klebsiella oxytoca 1082E)?
**A.** 0.007 µg/mL (≈ 0.0167 µM)

**Q.** And the MIC [3]?
**A.** 0.781 µg/mL (≈ 1.87 µM)

**Q.** And the MIC [4]?
**A.** 0.781 µg/mL (≈ 1.87 µM)

**Q.** What about the MIC [5] of the same compound?
**A.** 1.56 µg/mL (≈ 3.74 µM)

**Q.** And the MIC [6]?
**A.** 1.56 µg/mL (≈ 3.74 µM)

**Q.** What about the MIC (Salmonella typhimurium) of the same compound?
**A.** 0.025 µg/mL (≈ 0.0598 µM)

**Q.** What about the MIC [7] of the same compound?
**A.** 0.049 µg/mL (≈ 0.117 µM)

**Q.** And the MIC [8]?
**A.** 0.098 µg/mL (≈ 0.234 µM)

**Q.** And the MIC [9]?
**A.** 0.025 µg/mL (≈ 0.0598 µM)

**Q.** And the MIC [10]?
**A.** 0.098 µg/mL (≈ 0.234 µM)

**Q.** What about the MIC [11] of the same compound?
**A.** 0.391 µg/mL (≈ 0.935 µM)

**Q.** What about the MIC [12] of the same compound?
**A.** 0.025 µg/mL (≈ 0.0598 µM)
